Measured values published in US20240417387A1, “SULFONYLPIPERAZINYL COMPOUNDS FOR TREATMENT OF BACTERIAL INFECTIONS” (Hoffmann-La Roche Inc., priority 2021, published 2024).
≈ marks a conversion by molar mass, not a printed value. Where two headings read alike, the source gives them in different places.

Legend:
[1] = test system: Escherichia coli ATCC 25922; assay: Minimal Inhibitory Concentration (MIC) broth dilution assay, E. coli ATCC 25922; type: cell-based; settings: Escherichia coli, ATCC25922, 20 h, read-out: MIC E. coli ATCC 25922
Procedure: (§1) The antibacterial activity of molecules was evaluated against the commonly used quality control strain Escherichia coli BW 25113, Escherichia coli ATCC 25922 and the rifampin-resistant mutant strain Klebsiella pneumonia ATCC 43816. Escherichia co/i BW 25113 was obtained from the Coli Genetic Stock Center (CGSC) (strain 7636). Both Escherichia coli ATCC 25922 and Klebsiella pneumonia ATCC 43816 were originally derived from human clinical samples and are available from ATCC (American Type Culture Collection). The in vitro potency of compounds to inhibit Escherichia coli (BW 25113, ATCC 25922) and Klebsiella pneumonia (ATCC 43816) growth was assessed by the MIC (Minimal Inhibitory Concentration) broth dilution method. Specifically compound dilutions were prepared from 10 mM DMSO stock solutions as follows: i) serial 2-fold dilution in 20 μL DMSO were prepared in a master plate (Greiner, Cat No: 651201), ii) 180 μL sterile distilled water was added to each aliquot and iii) 10 μL diluted compounds were transferred into a new assay plate (Costar, 3599).
(§2) Vials of each test microorganisms were maintained frozen in the vapor phase of a liquid nitrogen freezer. Single-use frozen vials of the three strains Escherichia coli BW 25113, Escherichia coli ATCC 25922 (KWTKSTTK, 0335K) and Klebsiella pneumonia ATCC 43816, with predetermined CFU/mL, were taken out from the freezer, thawed at room temperature, and diluted in Cation-Adjusted Mueller Hinton Broth (CAMVIHB) to achieve a final inoculum of 5×10^5 CFU/mL. 90 μL bacteria containing broth was dispensed to the assay plate containing the pre-dispensed compound dilutions and mixed by pipetting 5 times.
(§3) Then the assay plates were incubated for 20 hours at 35° C. in ambient air. Following incubation, the MIC […], the lowest concentration of drug that inhibits visible growth of the microorganism was read with the help of a magnification mirror and recorded.

[2] = test system: Klebsiella pneumonia ATCC 43816; assay: Minimal Inhibitory Concentration (MIC) broth dilution assay, K. pneumonia ATCC 43816; type: cell-based; settings: Klebsiella pneumoniae, ATCC43816, 20 hours at 35° C., CAMHB, read-out: MIC K. p ATCC 43816
Procedure: as §1, §2, §3

[3] = test system: Escherichia coli BW 25113; assay: Minimal Inhibitory Concentration (MIC) broth dilution assay, E. coli BW 25113; type: cell-based; settings: Escherichia coli, BW25113, 20 hours at 35° C., CAMHB, read-out: MIC E. coli K-12 BW 25113
Procedure: as §1, §2, §3

[4] = molecular target: Escherichia coli UDP-2,3-diacylglucosamine hydrolase (LpxH) (Escherichia coli (strain K12), UniProt P43341); assay: Enzymatic IC50 assay of Escherichia coli LpxH (UMP/CMP-Glo luminescence); type: biochemical
Procedure: The inhibitory potency of compounds of Escherichia coli UDP-2,3-diacylglucosamine hydrolase (LpxH) was determined in an enzymatic assay. UDP-2,3-diacylglucosamine (UDP-DAG) was purified from the Caulobacter crescentus LpxI D225A mutant protein that contained a tightly bound UDP-DAG molecule. The enzyme was diluted using assay buffer containing 50 mM NaCl, 20 mM Tris-HCl pH7.5, 2.5 mM MnCl2, 0.01% Triton X-100.1 mg/mL BSA, and the final concentration is 2 nM. The compounds were diluted by Agilent liquid handler Bravo, the compound's serial dilution dose ranges from 100 μM to 1.7 nM. Then the enzyme and compounds mixture were incubated at room temperature for 10 mins. The enzymatic assay was started by adding UDP-DAG (FAC is 5 μM) and incubated for 20 mins at room temperature. The plate was then heated to 95° C. for 15 mins on a water batch to stop the reaction. The hydrolysis of UDP-DAG by LpxH yielded 2,3-diacylglucosamine 1-phosphate (lipid X) and UMP, which was converted to ATP and quantified by the luciferase reaction using the UMP/CMP-Glo™ Glycosyltransferase Assay kit from Promega. The compound's inhibitory effect of LpxH is determined by measuring the light change using a luminometer (Envision).

[5] = Human microsome stability assay; type: in vitro ADME; settings: human liver microsomes 0.5 mg/mL, 37° C., pH 7.4, NADPH regenerating system
Procedure: The human microsomal stability assay is used for early assessment of metabolic stability of a test compound in human liver microsomes.
Human liver microsomes (Cat.NO.: 452117, Corning, USA) were preincubated with test compound for 10 minutes at 37° C. in 100 mM potassium phosphate buffer, pH 7.4. The reactions were initiated by adding NADPH regenerating system. The final incubation mixtures contained 1 µM test compound, 0.5 mg/mL liver microsomal protein, 1 mM MgCl2, 1 mM NADP, 1 unit/mL isocitric dehydrogenase and 6 mM isocitric acid in 100 mM potassium phosphate buffer, pH 7.4. After incubation times of 0, 3, 6, 9, 15 and 30 minutes at 37° C., 300 μL of cold acetonitrile (including internal standard) was added to 100 μL incubation mixture to terminate the reaction. Following precipitation and centrifugation, the amount of compound remaining in the samples were determined by LC-MS/MS. Controls of no NADPH regenerating system at zero and 30 minutes were also prepared and analyzed. […] (Human microsome clearance: <7 mL/min/kg: low; 7-16.2 mL/min/kg: medium; >16.2 mL/min/kg: high)

[6] = Enzymatic IC50 against Escherichia coli LpxH, read-out: IC50 (converted)

Sequence of Escherichia coli UDP-2,3-diacylglucosamine hydrolase (LpxH) (P43341 whole entry): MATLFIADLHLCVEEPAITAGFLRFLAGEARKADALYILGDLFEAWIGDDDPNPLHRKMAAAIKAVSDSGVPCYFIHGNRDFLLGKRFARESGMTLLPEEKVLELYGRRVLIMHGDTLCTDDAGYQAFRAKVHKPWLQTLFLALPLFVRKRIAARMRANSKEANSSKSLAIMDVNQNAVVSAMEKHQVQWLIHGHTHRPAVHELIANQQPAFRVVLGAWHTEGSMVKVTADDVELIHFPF

N[C@@H]1CC(=O)N(c2ccc(S(=O)(=O)N3CCN(c4cc(C(F)(F)[C@H]5CC[C@H](C(=O)N[C@H]6CNC[C@H]6N)CC5)cc(Cl)n4)CC3)cc2)C1 (stereo in doubt) [Example 011, Trans-4-[[2-chloro-6-[4-[4-[(4R)-4-amino-2-oxo-pyrrolidin-1-yl]phenyl]sulfonylpiperazin-1-yl]-4-pyridyl]-difluoro-methyl]-N-[cis-4-aminopyrrolidin-3-yl]cyclohexanecarboxamide]
MIC [1]: 1.1 µg/mL (≈ 1.58 µM) | MIC [2]: 1.1 µg/mL (≈ 1.58 µM) | MIC [3]: 1.1 µg/mL (≈ 1.58 µM) | IC50 [4, 6]: 17.3 nM | Clearance of Human microsome [5]: 11.93 mL/min/kg

N[C@@H]1CC(=O)N(c2ccc(S(=O)(=O)N3CCN(c4cc(C(F)(F)[C@H]5CC[C@H](C(=O)NCC6CNC6)CC5)cc(Cl)n4)CC3)cc2)C1 [Example 002, Trans-4-[[2-[4-[4-[(4R)-4-amino-2-oxo-pyrrolidin-1-yl]phenyl]sulfonylpiperazin-1-yl]-6-chloro-4-pyridyl]-difluoro-methyl]-N-(azetidin-3-ylmethyl)cyclohexanecarboxamide]
MIC [1]: 1.8 µg/mL (≈ 2.65 µM) | MIC [2]: 1.8 µg/mL (≈ 2.65 µM) | MIC [3]: 1.8 µg/mL (≈ 2.65 µM) | IC50 [4, 6]: < 2.94 nM | Clearance of Human microsome [5]: 6.15 mL/min/kg

NC1CC(=O)N(c2ccc(S(=O)(=O)N3CCN(c4cc(C(F)(F)[C@H]5CC[C@H](C(=O)NCCCO)CC5)cc(Cl)n4)CC3)cc2)C1 (stereo partly drawn) [Example 003, Trans-4-[[2-[4-[4-(4-amino-2-oxo-pyrrolidin-1-yl)phenyl]sulfonylpiperazin-1-yl]-6-chloro-4-pyridyl]-difluoro-methyl]-N-(3-hydroxypropyl)cyclohexanecarboxamide]
MIC [1]: 4.2 µg/mL (≈ 6.28 µM) | MIC [2]: 2.1 µg/mL (≈ 3.14 µM) | MIC [3]: 1 µg/mL (≈ 1.49 µM) | IC50 [4]: < 2.99 nM | Clearance of Human microsome [5]: 7.41 mL/min/kg

CC1(N)CCN(C(=O)[C@H]2CC[C@H](C(F)(F)c3cc(Cl)nc(N4CCN(S(=O)(=O)c5ccc(N6C[C@H](N)CC6=O)cc5)CC4)c3)CC2)CC1 [Example 004, Trans-(4R)-4-amino-1-[4-[4-[4-[[4-(4-amino-4-methyl-piperidine-1-carbonyl)cyclohexyl]-difluoro-methyl]-6-chloro-2-pyridyl]piperazin-1-yl]sulfonylphenyl]pyrrolidin-2-one]
MIC [1]: 1.1 µg/mL (≈ 1.55 µM) | MIC [2]: 1.1 µg/mL (≈ 1.55 µM) | MIC [3]: 0.83 µg/mL (≈ 1.17 µM) | IC50 [4, 6]: 8.47 nM | Clearance of Human microsome [5]: 6.15 mL/min/kg

CN1CC2(C1)CN(C(=O)[C@H]1CC[C@H](C(F)(F)c3cc(Cl)nc(N4CCN(S(=O)(=O)c5ccc(N6C[C@H](N)CC6=O)cc5)CC4)c3)CC1)C2 [Example 005, Trans-(4R)-4-amino-1-[4-[4-[6-chloro-4-[difluoro-[4-(6-methyl-2,6-diazaspiro[3.3]heptane-2-carbonyl)cyclohexyl]methyl]-2-pyridyl]piperazin-1-yl]sulfonylphenyl]pyrrolidin-2-one]
MIC [1]: 2.2 µg/mL (≈ 3.12 µM) | MIC [2]: 2.2 µg/mL (≈ 3.12 µM) | MIC [3]: 3.3 µg/mL (≈ 4.67 µM) | IC50 [4, 6]: 4.25 nM | Clearance of Human microsome [5]: 6.15 mL/min/kg

N[C@@H]1CC(=O)N(c2ccc(S(=O)(=O)N3CCN(c4cc(C(F)(F)[C@H]5CC[C@H](C(=O)NC6CNCC6O)CC5)cc(Cl)n4)CC3)cc2)C1 (some centres unmarked) [Example 006]
MIC [1]: 1.1 µg/mL (≈ 1.58 µM) | MIC [2]: 1.1 µg/mL (≈ 1.58 µM) | MIC [3]: 1.1 µg/mL (≈ 1.58 µM) | IC50 [4, 6]: 4.31 nM | Clearance of Human microsome [5]: 6.15 mL/min/kg

NC1CC(NC(=O)[C@H]2CC[C@H](C(F)(F)c3cc(Cl)nc(N4CCN(S(=O)(=O)c5ccc(N6C[C@H](N)CC6=O)cc5)CC4)c3)CC2)C1 (stereo partly drawn) [Example 007, Trans-N-(3-aminocyclobutyl)-4-[[2-chloro-6-[4-[4-[(4R)-4-amino-2-oxo-pyrrolidin-1-yl]phenyl]sulfonylpiperazin-1-yl]-4-pyridyl]-difluoro-methyl]cyclohexanecarboxamide]
MIC [1]: 1.1 µg/mL (≈ 1.62 µM) | MIC [2]: 0.53 µg/mL (≈ 0.779 µM) | MIC [3]: 1.1 µg/mL (≈ 1.62 µM) | IC50 [4, 6]: 7.35 nM | Clearance of Human microsome [5]: 6.90 mL/min/kg

CC(CN)NC(=O)[C@H]1CC[C@H](C(F)(F)c2cc(Cl)nc(N3CCN(S(=O)(=O)c4ccc(N5C[C@H](N)CC5=O)cc4)CC3)c2)CC1 (stereo partly drawn) [Example 008, Trans-N-(2-amino-1-methyl-ethyl)-4-[[2-chloro-6-[4-[4-[(4R)-4-amino-2-oxo-pyrrolidin-1-yl]phenyl]sulfonylpiperazin-1-yl]-4-pyridyl]-difluoro-methyl]cyclohexanecarboxamide]
MIC [1]: 0.52 µg/mL (≈ 0.778 µM) | MIC [2]: 0.52 µg/mL (≈ 0.778 µM) | MIC [3]: 1 µg/mL (≈ 1.5 µM) | IC50 [4, 6]: 5.99 nM | Clearance of Human microsome [5]: 8.07 mL/min/kg

N[C@@H]1CC(=O)N(c2ccc(S(=O)(=O)N3CCN(c4cc(C(F)(F)[C@H]5CC[C@H](C(=O)NCCN6CCCC6)CC5)cc(Cl)n4)CC3)cc2)C1 [Example 009, Trans-4-[[2-chloro-6-[4-[4-[(4R)-4-amino-2-oxo-pyrrolidin-1-yl]phenyl]sulfonylpiperazin-1-yl]-4-pyridyl]-difluoro-methyl]-N-(2-pyrrolidin-1-ylethyl)cyclohexanecarboxamide]
MIC [1]: 1.5 µg/mL (≈ 2.12 µM) | MIC [2]: 1.5 µg/mL (≈ 2.12 µM) | MIC [3]: 1.5 µg/mL (≈ 2.12 µM) | IC50 [4, 6]: < 2.82 nM | Clearance of Human microsome [5]: 11.13 mL/min/kg

NCCCNC(=O)C1CCC(C(F)(F)c2cc(Cl)nc(N3CCN(S(=O)(=O)c4ccc(N5C[C@H](N)CC5=O)cc4)CC3)c2)C1 (stereo partly drawn) [Example 035, N-(3-aminopropyl)-3-[[2-chloro-6-[4-[4-[(4R)-4-amino-2-oxo-pyrrolidin-1-yl]phenyl]sulfonylpiperazin-1-yl]-4-pyridyl]-difluoro-methyl]cyclopentanecarboxamide]
IC50 [4, 6]: 45.9 nM | Clearance of Human microsome [5]: 8.90 mL/min/kg

NCCCNC(=O)C12CC(C(F)(F)c3cc(Cl)nc(N4CCN(S(=O)(=O)c5ccc(N6C[C@H](N)CC6=O)cc5)CC4)c3)(C1)C2 [Example 040]
IC50 [4, 6]: 6.13 nM | Clearance of Human microsome [5]: 6.15 mL/min/kg

NCCCNC(=O)[C@H]1CC[C@H](C(F)(F)c2cc(Cl)nc(N3CCC(S(=O)(=O)c4ccc(N5C[C@H](N)CC5=O)cc4)CC3)c2)CC1 [Example 062, Trans-N-(3-aminopropyl)-4-[[2-chloro-6-[4-[4-[(4R)-4-amino-2-oxo-pyrrolidin-1-yl]phenyl]sulfonyl-1-piperidyl]-4-pyridyl]-difluoro-methyl]cyclohexanecarboxamide]
IC50 [4, 6]: 33 nM | Clearance of Human microsome [5]: 7.74 mL/min/kg

C[N+]1(CCN)CCN(C(=O)[C@H]2CC[C@H](C(F)(F)c3cc(Cl)nc(N4CCN(S(=O)(=O)c5ccc(N6C[C@H](N)CC6=O)cc5)CC4)c3)CC2)CC1 [Example 071, Trans-(4R)-4-amino-1-[4-[4-[4-[[4-[4-(2-aminoethyl)-4-methyl-piperazin-4-ium-1-carbonyl]cyclohexyl]-difluoro-methyl]-6-chloro-2-pyridyl]piperazin-1-yl]sulfonylphenyl]pyrrolidin-2-one]
IC50 [4, 6]: 14.9 nM | Clearance of Human microsome [5]: 10.73 mL/min/kg
